Results as given in US20230028658A1, “EXPANDED DOSAGE REGIMENS FOR INTEGRIN INHIBITORS” (Pliant Therapeutics, Inc., priority 2021, published 2023).
Like-named read-outs stand apart in the source and are kept apart here.

Tests used:
[1] = tested on: COL1A1; assay: COL1A1 expression in precision cut lung slices (PCLS) from human IPF lung tissue (FIG. 6E); type: cell-based; details: concentrations ranging from 200 pM to 1 μM, versus 0.1% DMSO control
Experimental: FIG. 6D is a bar graph showing relative expression of COL1A1 in precision cut lung slices (PCLS) from idiopathic pulmonary fibrosis (IPF) lung tissue upon exposure to Compound 5, clinical standard of care compounds nintedanib (Nin) and pirfenidone (Pirf), and an ALK5 inhibitor, all versus DMSO control.
COL1A1 expression is also graphed for the PCLS in the presence of 0.1% DMSO control, and an Alk5 inhibitor at 1 μM.

[2] = tested on: Type I Collagen gene Col1a1 expression; assay: Precision cut lung slices of mice under acute bleomycin exposure, Col1a1 expression; type: cell-based, Mice (C57BL/6); details: acute bleomycin PCLS, 3 days culture, normalized to DMSO; FIG. 5A
Experimental: Mice (C57BL/6) were administered 3 U/kg of bleomycin (Teva Pharmaceuticals; North Wales, Pa.) on day 0 via oropharyngeal aspiration while under anesthesia. On day 14, precision cut lung slices were obtained. Following euthanization, 2% low gelling temp agarose was injected into the mouse lungs via the trachea. […] The lobes were then subjected to precision slicing to obtain samples for culture using a microtome (Compresstome VF-300-0Z, Precisionary; Greenville, N.C.). Individual slices were distributed in a multiwell culture plate and cultured for 3 days under control (DMSO) and test compound conditions.

[3] = Single dose pharmacokinetics (SAD), Example B14; type: in vivo, human; details: for half-life / Cmax / AUC(0-t) / Tmax: human, oral; for half-life: plasma total drug; for half-life / Cmax / AUC(0-t): geometric mean; for Cmax / AUC(0-t) / Tmax: plasma; for AUC(0-t): read-out: AUC0-24, ng × h/mL; for Tmax: median
Text: Accordingly, a study was designed to assess the PK of Compound 5 after a single dose and following a 6-day course of doses, at levels exceeding the dosages used in preceding Examples B12 and B13. This study was designed to assess at these higher doses aspects of the single-dose and steady-state pharmacokinetics of Compound 5.
This study was a single-center, randomized, double-blind, ascending dose, placebo-controlled study in healthy participants. Each cohort included 10 participants (8 active, 2 placebo). Study participants received single ascending doses (SAD) of Compound 5 of 120, 160, 240, 320, 480, and 640 mg and multiple ascending doses (MAD) of Compound 5 of 80, 120, 160, 240, and 320 mg. Two cohorts of participants at 160 mg were studied in the MAD phase of the study.
Participants received single Compound 5 doses of 120, 160, 240, 320, 480, and 640 mg. A total of 60 participants were enrolled across the dosing groups, with 48 participants who received Compound 5 available for PK analyses. Despite the substantially higher dosages, PK parameters in the dosing groups were consistent with those observed at lower doses in Example B12.

[4] = tested on: bleomycin-treated mice; assay: Murine bleomycin model; type: in vivo, Mice (C57BL/6)
Text: It has been previously shown that inhibition of αvβ6 in the lung can be detected though measurement of phospho-SMAD (pSMAD) in alveolar macrophages. Alveolar macrophages are known to operate in a unique niche in the lung, distinct from interstitial macrophages. SMAD3 is a downstream target of the active TGF-β cytokine binding its receptor and in alveolar macrophages it is phosphorylated by homoeostatic levels of TGF-β. Accordingly, it was desirable to know whether inhibition of TGF-β activation using the disclosed compounds would result in reduced SMAD2 and SMAD3 phosphorylation.
Mice (C57BL/6) were divided into healthy (n=15), vehicle-treated (n=15), and test article-treated (n=15 per dose) groups. Mice in the vehicle and test article-treated groups were administered 3 U/kg of bleomycin (Teva Pharmaceuticals; North Wales, Pa.) via oropharyngeal aspiration while under anesthesia on day 0. Healthy animals were administered water in a similar fashion. Starting on day 7, mice in the control group were administered PBS vehicle, 130 μL, by oral gavage, BID for 14 days. Also starting on day 7, mice in the test group were administered compound 5 in PBS by oral gavage, BID for 14 days, at relative dosages of 1×, 2.5× and 5×. […] From day 14 through day 21, 9 of the 15 mice were administered ^2H2O for labeling. All mice were sacrificed on day 21 and tissues were collected. Samples were prepared for analysis either directly from lung tissue, or by bronchoalveolar lavage, which washes out the bronchiolar and alveolar space with saline to produce a bronchoalveolar lavage fluid (BALF) in which 80-90% of cells are alveolar macrophages.

[5] = tested on: pSMAD2/SMAD2; assay: pSMAD2/SMAD2 in BALF cells of healthy participants, Example B15 Part 1; type: in vivo, human; details: preliminary analysis
Text: The primary objective of this study was to assess the pharmacodynamic changes in biomarkers of TGF-β activation in alveolar macrophages from bronchoalveolar lavage fluid (BALF) following dosing of Compound 5 for 7 days. Secondary objectives of this study were to assess the safety and tolerability of Compound 5 following dosing for 7 days, the plasma PK of Compound 5, and the PK/PD (BALF biomarkers) relationship.
This study was designed as a randomized, double-blind, placebo-controlled study in 48 healthy participants conducted in 2 parts. Part 1 has completed clinical conduct, and Part 2 is ongoing. In Part 1, 24 participants were randomized 1:1:1 to receive Compound 5 80 mg QD, Compound 5 160 mg QD, or placebo QD. A safety review committee reviewed the safety and PK data from Part 1 and recommended doses for Part 2. In Part 2, 24 participants were randomized 1:1:1 to receive Compound 5 320 mg QD (Compound 5 in the morning and matched placebo in the afternoon), Compound 5 160 mg twice daily (BID), or placebo BID. In both parts, samples of BALF were collected from the middle lobe or lingula via bronchoscopy prior to dosing (Day −1) and at 6 and 24 hours post morning dose on Day 7. BALF samples were assessed for TGF-β receptor kinase activity (pSMAD2/SMAD2) in pelleted cells (primarily alveolar macrophages) and additional cell material was used to measure TGF-β signaling pathway-related gene expression levels. Plasma samples were collected to measure Compound 5 concentrations and determine protein binding. Safety was monitored via open-ended AE inquiry and clinical chemistry, hematology, vital sign, and 12-lead ECG parameters.

COCCN(CCCCc1ccc2c(n1)NCCC2)CC[C@H](Nc1ncnc2ccccc12)C(=O)O [Compound 5, (S)-4-((2-methoxyethyl) (4-(5,6,7,8-tetrahydro-1,8-naphthyridin-2-yl)butyl)amino)-2-(quinazolin-4-ylamino) butanoic acid]
COL1A1 expression in PCLS from human IPF lung tissue [1]: dose dependent reduction
Type I Collagen gene Col1a1 expression [2]: decreased Type I Collagen gene Col1a1 expression substantially
half-life ([3]; single dose 120 mg): 37 h
half-life ([3]; single dose 160 mg): 36.5 h
half-life ([3]; single dose 240 mg): 46 h
half-life ([3]; single dose 320 mg): 40.7 h
half-life ([3]; single dose 480 mg): 43.7 h
half-life ([3]; single dose 640 mg): 42.3 h
Cmax ([3]; single dose 120 mg): 2710 ng/mL
AUC(0-t) ([3]; single dose 120 mg): 27400 ng·h/mL
Tmax ([3]; single dose 120 mg): 4 h
Cmax ([3]; single dose 160 mg): 2480 ng/mL
AUC(0-t) ([3]; single dose 160 mg): 28500 ng·h/mL
Tmax ([3]; single dose 160 mg): 1.95 h
Cmax ([3]; single dose 240 mg): 4390 ng/mL
AUC(0-t) ([3]; single dose 240 mg): 48000 ng·h/mL
Tmax ([3]; single dose 240 mg): 3.5 h
Cmax ([3]; single dose 320 mg): 6390 ng/mL
AUC(0-t) ([3]; single dose 320 mg): 71200 ng·h/mL
Tmax ([3]; single dose 320 mg): 4 h
Cmax ([3]; single dose 480 mg): 5080 ng/mL
AUC(0-t) ([3]; single dose 480 mg): 57300 ng·h/mL
Tmax ([3]; single dose 480 mg): 3 h
Cmax ([3]; single dose 640 mg): 6900 ng/mL
AUC(0-t) ([3]; single dose 640 mg): 88300 ng·h/mL
Tmax ([3]; single dose 640 mg): 3.5 h
dose proportionality of total and peak exposures ([3]; single doses over the range of 120 to 640 mg): slightly less than dose-proportional manner
dose proportionality of total (AUC0-24) and peak (Cmax) exposure ([3]; single oral doses of 120 to 320 mg): increased in a dose-proportional manner
pSMAD3 levels in lung and BALF cells vs. plasma drug exposure ([4]; 14 days after bleomycin, […] dose PO BID 1.5 days, FIGS. 4J, 4K): close inverse relationship
accumulated new collagen (percentage of lung collagen containing 2H-labeled hydroxyproline) ([4]; bleomycin mice, 1× and 5× (p<0.01 vs vehicle), FIG. 4D): dose-dependent reduction
total pulmonary collagen, as measured by μg of hydroxyproline ([4]; bleomycin mice, 1×, […], 5× (p<0.05 vs vehicle), FIG. 4E): reduction in total pulmonary collagen
percent total collagen area in second harmonic generation lung images ([4]; bleomycin mice, 1×, […], 5×, FIG. 4I): substantial, statistically significant dose-dependent reduction
pSMAD3 levels in the lung (SMAD3 phosphorylation) ([4]; bleomycin mice, oral gavage BID 14 days, 1×, […], 5×, FIG. 4C): approximately 50 % of the untreated levels
reduction in pSMAD2 levels (pSMAD2/SMAD2 ratio) ([5]; 80 mg QD 7 days, 6 hours post dose Day 7): 41.2%
reduction in pSMAD2 levels (pSMAD2/SMAD2 ratio) ([5]; 80 mg QD 7 days, 24 hours post dose Day 7): 36.6%
reduction in pSMAD2 levels (pSMAD2/SMAD2 ratio) ([5]; 160 mg QD 7 days, 6 hours post dose Day 7): 57.8%
reduction in pSMAD2 levels (pSMAD2/SMAD2 ratio) ([5]; 160 mg QD 7 days, 24 hours post dose Day 7): 53.2%
